30 compounds from US11166924B2, “N-methyl-d-aspartate receptor allosteric modulators and methods for their use” (Qingdao Primedicine Pharmaceutical Company, Ltd., priority 2016, dated 2021) can be followed below.

By EC50 is commonly meant the concentration at which the effect is half-maximal.

T1 sequence (Q00959 23-1464, other chains not shown): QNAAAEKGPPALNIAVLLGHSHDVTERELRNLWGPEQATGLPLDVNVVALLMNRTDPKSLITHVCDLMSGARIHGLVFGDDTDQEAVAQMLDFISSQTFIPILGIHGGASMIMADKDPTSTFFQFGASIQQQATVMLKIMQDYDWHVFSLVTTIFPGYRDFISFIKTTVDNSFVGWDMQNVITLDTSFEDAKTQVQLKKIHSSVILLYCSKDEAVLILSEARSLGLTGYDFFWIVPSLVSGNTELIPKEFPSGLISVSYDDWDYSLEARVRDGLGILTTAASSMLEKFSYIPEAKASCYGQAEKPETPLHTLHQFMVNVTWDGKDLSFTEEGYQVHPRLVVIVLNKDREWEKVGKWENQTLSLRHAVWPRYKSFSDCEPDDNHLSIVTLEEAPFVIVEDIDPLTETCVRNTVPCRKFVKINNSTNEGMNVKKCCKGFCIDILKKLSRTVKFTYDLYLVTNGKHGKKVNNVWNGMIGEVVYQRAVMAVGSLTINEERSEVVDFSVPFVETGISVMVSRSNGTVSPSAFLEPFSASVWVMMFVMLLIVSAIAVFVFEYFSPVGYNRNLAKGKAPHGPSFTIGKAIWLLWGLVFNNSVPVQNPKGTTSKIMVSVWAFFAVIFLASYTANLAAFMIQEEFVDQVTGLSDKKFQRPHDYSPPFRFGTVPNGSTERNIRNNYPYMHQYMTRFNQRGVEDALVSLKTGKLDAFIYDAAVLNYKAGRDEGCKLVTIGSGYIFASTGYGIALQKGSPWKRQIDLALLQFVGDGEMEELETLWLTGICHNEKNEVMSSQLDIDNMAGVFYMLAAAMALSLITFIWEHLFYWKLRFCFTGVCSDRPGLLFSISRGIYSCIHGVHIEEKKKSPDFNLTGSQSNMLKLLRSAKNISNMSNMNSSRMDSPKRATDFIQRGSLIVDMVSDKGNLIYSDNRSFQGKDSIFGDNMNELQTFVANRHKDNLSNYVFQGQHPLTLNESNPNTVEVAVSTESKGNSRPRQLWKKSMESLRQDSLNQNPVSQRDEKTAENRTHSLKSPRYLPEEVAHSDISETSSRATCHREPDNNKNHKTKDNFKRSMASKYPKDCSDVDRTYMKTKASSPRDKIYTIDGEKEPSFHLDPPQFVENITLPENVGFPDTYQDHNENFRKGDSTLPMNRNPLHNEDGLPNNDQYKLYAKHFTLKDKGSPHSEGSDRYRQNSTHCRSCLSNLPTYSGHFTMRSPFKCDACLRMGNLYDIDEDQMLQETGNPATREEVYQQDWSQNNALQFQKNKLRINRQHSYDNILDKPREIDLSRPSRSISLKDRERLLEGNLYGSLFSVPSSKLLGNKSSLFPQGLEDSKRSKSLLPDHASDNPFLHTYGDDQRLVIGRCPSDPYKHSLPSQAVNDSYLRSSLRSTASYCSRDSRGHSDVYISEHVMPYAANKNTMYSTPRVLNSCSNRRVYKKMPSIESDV

One test addresses T1, GluN1/GluN2A NMDARs (Rattus norvegicus, UniProt P35439+Q00959).
T1 construct: expressed in transfected cells; host or cells: HEK293
Kind of test: Whole-cell patch clamp recordings in HEK293 cells transfected with GluN1/GluN2A. The conditions noted are these: Table 1; positive modulation of GluN1/GluN2A NMDARs; concentration not given. It counts as cell-based. The procedure: Cells were transfected with a combination of pcDNA3-CMV expression vectors, each of which expressed one of the rat recombinant (GluN2AWT, GluN1WT, GluN2BWT) subunits. The sequences of all plasmids were confirmed by automated DNA sequencing. Human Embryonic Kidney 293 (HEK293 cells) were cultured in Dulbecco's Modified Eagle's Medium (DMEM) (Invitrogen) supplemented with 10% fetal bovine serum (FBS). When HEK293 cells achieved 90% confluence, plasmids of either GluN1 & GluN2A or GluN1 & GluN2B were co-transfected into the cells using Lipofectamine 2000 (Invitrogen, 11668019) according to manufacturer's instructions. HEK293 cells were then maintained in the 37° C. incubator with […] and 5% CO2 for 48 hrs before being used in experiments. The transfection ratios for the NMDAR subunit combinations were all 1:1 (GluN1/GluN2A or GluN1/GluN2B).
Whole cell patch-clamp recordings were performed under voltage-clamp mode using an Axopatch 200B or 1D patch-clamp amplifier (Molecular Devices). Whole-cell currents were recorded at a holding potential of −60 mV unless indicated elsewhere, and signals were filtered at 2 kHz, digitized at 10 kHz (Digidata 1322A). Recording pipettes (3-5 MΩ) were filled with intracellular solution containing (mM): CsCl 140, HEPES 10, Mg-ATP 4, QX-314 5, pH 7.20; osmolarity, 290-295 mOsm. BAPTA (10 mM) was added in the intracellular solution (unless otherwise specified). The coverslips were continuously superfused with extracellular solution containing (mM): NaCl 140, KCl 5.4, HEPES 10, CaCl2 1.3, glucose 20, pH 7.4; osmolarity, 305-315 mOsm. NMDA-induced currents were applied by NMDA through perfusion fast-step (Warner Instruments). With perfusion fast-step system, NMDA application was achieved by using a two-square barrel glass tubing and depending on the age of the cultured neurons, CNQX (10 μM), TTX (0.5 μM) or BIC (10 μM) were added in the extracellular solution to minimize the activation of ionotropic glutamate receptors and voltage-gated sodium channels, respectively. All experiments were performed at room temperature. Recordings from at least six HEK293 cells/neurons were performed for all active compounds. Data were pooled among HEK293 cells or primary neurons and composite dose-response data were fitted by the equation Percentage Response=100×Relative Efficacy/[1+(EC50/Concentration)nH], where EC50 is the concentration of agonist that produces a half-maximal response, relative efficacy is the response at maximally effective concentration relative to the maximal response of glutamate, and nH is the Hill slope.
GluN1/GluN2A NMDAR subtypes are an attractive target for positive allosteric modulation. The present inventors employed in silico computational drug discovery methods to conduct a virtual screen of purchasable lead-like compounds from the ZINC database (Irwin, J., et al. Abstr Pap Am Chem Soc (2005) 230:U1009) and some synthetic compounds to identify potential GluN1/GluN2A-NMDAR modulators. The in silico methods included large-scale docking against the interstice interface of the GluN1/GluN2A heterodimer and consensus scoring to select compounds for empirical testing. Candidate compounds were further screened by using GluN1/GluN2A transiently transfected in human embryonic kidney (HEK293) cells and tested by whole-cell patch clamp recordings.
The inventors used transiently transfected HEK293 cells expressing either GluN1/GluN2A or GluN1/GluN2B NMDARs and tested by whole-cell voltage patch clamp recordings to see whether selected compounds were controlling the subtype selectivity profile of the drugs.
Whole-cell patch clamp recordings were performed to measure glutamate evoked currents with chloride-based pipette solutions at a holding potential of −60 mV.
With `CCOc1cc(Br)c(Br)c(/C=N/NC(=O)c2cccc(Cl)c2C)c1O` [Npam10, 3-chloro-N′-[(1E)-(2,3-dibromo-5-ethoxy-6-hydroxyphenyl)methylidene]-2-methylbenzohydrazide], the “Normalized Potentiation” value was 206.28 ± 33.62%. On the same count and under the same terms, in the case of `COc1cc(Cl)cc(/C=N/NC(=O)c2ccccc2Br)c1O` [Npam29, (E)-2-bromo-N′-(5-chloro-2-hydroxy-3-methoxybenzylidene)benzohydrazide] it was 120.68 ± 9.61%. On the same count and under the same terms, in the case of `CCOc1cc(Cl)c(Cl)c(/C=N/NC(=O)c2cncc(Br)c2)c1O` [Npam06, (E)-5-bromo-N′-(2,3-dichloro-5-ethoxy-6-hydroxybenzylidene)nicotinohydrazide] it was 201.19 ± 14.63%. In the case of `CCOc1cc(/C=N/NC(=O)c2ccccc2Br)cc(Br)c1O` [Npam27, (E)-2-bromo-N′-(3-bromo-5-ethoxy-4-hydroxybenzylidene)benzohydrazide], the “Normalized Potentiation” value was −0.278 ± 5.62%.

In the case of `CCOc1cc(Cl)c(Cl)c(/C=N/NC(=O)c2cccc(Br)c2C)c1OC` [Npam51, 3-bromo-N′-[(1E)-(2,3-dichloro-5-ethoxy-6-methoxyphenyl)methylidene]-2-methylbenzohydrazide], the “Normalized Potentiation” value turned out to be 33.37 ± 6.39%.

With `CCOc1cc(Br)cc(/C=N/NC(=O)c2ccccc2N)c1O` [Npam21, (E)-2-amino-N′-(5-bromo-3-ethoxy-2-hydroxybenzylidene)benzohydrazide], the “Normalized Potentiation” value amounted to 37.27 ± 4.64%.

As to `CCOc1cc(Cl)c(Cl)c(/C=N/NCc2ccccc2)c1O` [Npam57, 2-[(1E)-(2-benzylhydrazin-1-ylidene)methyl]-3,4-dichloro-6-ethoxyphenol], the “Normalized Potentiation” value is given as 105.85 ± 12.62%.

In the case of `CCOc1cccc(/C=N/NC(=O)c2ccccc2Br)c1O` [Npam31, 2-bromo-N′-[(1E)-(3-ethoxy-2-hydroxyphenyl)methylidene]benzohydrazide], the “Normalized Potentiation” value was found to be 15.11 ± 8.78%. On to `COc1cc(Br)c(Br)c(/C=N/NC(=O)c2ccccc2Br)c1O` [Npam05, (E)-2-bromo-N′-(2,3-dibromo-6-hydroxy-5-methoxybenzylidene)benzohydrazide], for which the “Normalized Potentiation” value is on record as 196.54 ± 21.20%. As for `O=C(N/N=C/c1cc(Cl)cc(Cl)c1O)c1ccccc1Br` [Npam26, (E)-2-bromo-N′-(3,5-dichloro-2-hydroxybenzylidene)benzohydrazide], the “Normalized Potentiation” value is 175.08 ± 14.42%. For the compound `COc1cc(Br)c(Br)c(/C=N/NC(=O)c2ccc(C(C)(C)C)cc2)c1O` [Npam35, (E)-4-(tert-butyl)-N′-(2,3-dibromo-6-hydroxy-5-methoxybenzylidene)benzohydrazide], the “Normalized Potentiation” value is 512.24 ± 28.67%. Consider `CCOc1cc(Br)c(Br)c(/C=N/NC(=O)c2ccccc2C)c1O` [Npam04C, (E)-N′-(2,3-dibromo-5-ethoxy-6-hydroxybenzylidene)-2-methylbenzohydrazide], for which the “Normalized Potentiation” value worked out at 292.08 ± 44.70%. As to `COc1cc(Br)c(Br)c(/C=N/NC(=O)c2ccccc2)c1O` [Npam59, (E)-N′-(2,3-dibromo-6-hydroxy-5-methoxybenzylidene)benzohydrazide], the “Normalized Potentiation” value was determined as 441.71 ± 65.24%.

Take `CCOc1cc(Cl)c(Cl)c(/C=N/NC(=O)c2cccc(Br)c2)c1O` [Npam32, (E)-3-bromo-N′-(2,3-dichloro-5-ethoxy-6-hydroxybenzylidene)benzohydrazide]: the “Normalized Potentiation” value is recorded as 374.58 ± 19.07%. As to `CCOc1cc(Br)cc(/C=N/NC(=O)c2ccc(F)cc2)c1O` [Npam22, (E)-N′-(5-bromo-3-ethoxy-2-hydroxybenzylidene)-4-fluorobenzohydrazide], the “Normalized Potentiation” value is given as 59.83 ± 7.55%.

In the case of `COc1cc(Br)c(Br)c(/C=N/NC(=O)c2ccc(Cl)cc2)c1O` [Npam13, (E)-4-chloro-N′-(2,3-dibromo-6-hydroxy-5-methoxybenzylidene)benzohydrazide], the “Normalized Potentiation” value amounted to 195.38 ± 40.11%. Regarding `CCOc1cc(Cl)c(Cl)c(/C=N/NC(=O)Cc2ccccc2)c1O` [Npam56, N′-[(1E)-(2,3-dichloro-5-ethoxy-6-hydroxyphenyl)methylidene]-2-phenylacetohydrazide], the “Normalized Potentiation” value came to 21.48 ± 2.89%. Regarding `CCOc1cc(Cl)c(Cl)c(/C=N/N(C)C(=O)c2ccccc2)c1O` [Npam52, N′-[(1E)-(2,3-dichloro-5-ethoxy-6-hydroxyphenyl)methylidene]-N-methylbenzohydrazide], the “Normalized Potentiation” value came to 175.53 ± 25.9%. As to `CCOc1cc(Br)c(Br)c(/C=N/NC(=O)c2ccccc2OC)c1O` [Npam12, (E)-N′-(2,3-dibromo-5-ethoxy-6-hydroxybenzylidene)-2-methoxybenzohydrazide], the “Normalized Potentiation” value came out at 118.15 ± 35.54%. In the case of `Cc1ccccc1C(=O)N/N=C/c1cccc(O)c1O` [Npam34, (E)-N′-(2,3-dihydroxybenzylidene)-2-methylbenzohydrazide], the “Normalized Potentiation” value was −12.47 ± 2.06%. Still for that read-out and setting: the result for `COc1cc(Br)c(Br)c(/C=N/NC(=O)c2cccnc2)c1O` [Npam39, (E)-N′-(2,3-dibromo-6-hydroxy-5-methoxybenzylidene)nicotinohydrazide] reads 51.95 ± 11.29%; that for `COc1cc(Cl)cc(/C=N/NC(=O)c2ccccc2Br)c1O` [Npam20, (E)-2-bromo-N′-(5-chloro-2-hydroxy-3-methoxybenzylidene)benzohydrazide], 131.85 ± 23.20%; that for `CCOc1cc(Br)cc(/C=N/NC(=O)c2cccc(C)c2C)c1O` [Npam15, (E)-N′-(5-bromo-3-ethoxy-2-hydroxybenzylidene)-2,3-dimethylbenzohydrazide], 89.84 ± 27.86%. Still for that read-out and setting: the result for `CCOc1cc(Br)cc(/C=N/NC(=O)c2ccncc2)c1O` [Npam28, N′-[(1E)-(5-bromo-3-ethoxy-2-hydroxyphenyl)methylidene]pyridine-4-carbohydrazide] reads 30.25 ± 2.87%; that for `COc1cccc(/C=N/NC(=O)c2ccccc2C)c1O` [Npam42, (E)-N′-(2-hydroxy-3-methoxybenzylidene)-2-methylbenzohydrazide], 43.04 ± 6.55%. As for `CCOc1cc(Cl)c(Cl)c(/C=N/NC(=O)c2ccccc2OC)c1O` [Npam53, (E)-N′-(2,3-dichloro-5-ethoxy-6-hydroxybenzylidene)-2-methoxybenzohydrazide], the “Normalized Potentiation” value came out at 110.23 ± 4.70%. As to `COc1cc(Br)c(Br)c(/C=N/NC(=O)c2cccc(F)c2)c1O` [Npam37, (E)-N′-(2,3-dibromo-6-hydroxy-5-methoxybenzylidene)-3-fluorobenzohydrazide], the “Normalized Potentiation” value was 435.94 ± 156.01%. As for `CCOc1cc([N+](=O)[O-])cc(/C=N/NC(=O)c2cc(Cl)ccc2O)c1O` [Npam24, (E)-5-chloro-N′-(3-ethoxy-2-hydroxy-5-nitrobenzylidene)-2-hydroxybenzohydrazide], the “Normalized Potentiation” value was 61.57 ± 8.15%. With `COc1cc(/C=N/NC(=O)c2ccccc2Br)c(Br)c(Br)c1O` [Npam40, (E)-2-bromo-N′-(2,3-dibromo-4-hydroxy-5-methoxybenzylidene)benzohydrazide], the “Normalized Potentiation” value was found to be 2.51 ± 3.79%. `CCOc1cccc(/C=N/NC(=O)c2cccc(Cl)c2C)c1O` [Npam07, (E)-3-chloro-N′-(3-ethoxy-2-hydroxybenzylidene)-2-methylbenzohydrazide]: the “Normalized Potentiation” value worked out at 103.77 ± 11.00%.

The test is the same for the next values; noted with them: Table 1; potentiation; read-out: EC50.
As for `COc1cc(Br)c(Br)c(/C=N/NC(=O)c2ccc(C(C)(C)C)cc2)c1O` [Npam35, (E)-4-(tert-butyl)-N′-(2,3-dibromo-6-hydroxy-5-methoxybenzylidene)benzohydrazide], the EC50 was 220 nM. As for `COc1cc(Br)c(Br)c(/C=N/NC(=O)c2ccccc2)c1O` [Npam59, (E)-N′-(2,3-dibromo-6-hydroxy-5-methoxybenzylidene)benzohydrazide], the EC50 amounted to 90 nM.

As to `CCOc1cc(Cl)c(Cl)c(/C=N/NC(=O)c2cccc(Br)c2)c1O` [Npam32, (E)-3-bromo-N′-(2,3-dichloro-5-ethoxy-6-hydroxybenzylidene)benzohydrazide], the EC50 was 250 nM.
